The values below come from PubChem BioAssay AID328 (DTP/NCI, 2004).

Structures are written as SMILES. Toxic doses and inconclusive results are not listed.

In this test the test system is BDF1 mice, P388 leukemia ip, median survival T/C. Put plainly: NCI In Vivo Anticancer Drug Screen. Data for tumor model P388 Leukemia (intraperitoneal) in B6D2F1 (BDF1) mice. Conditions: endpoint: median survival time, higher = longer survival. A digest of the protocol: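 In tumour-bearing mice, survival after compound treatment is set against the vehicle group and given as a quotient.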

The mark [1] stands for this setting: dose: 50.0 mg/kg/injection, schedule: Q01DX009 (ip), vehicle: saline with Tween-80.
Setting [2] is: dose: 100.0 mg/kg/injection, schedule: Q01DX009 (ip), vehicle: saline with Tween-80.
Where [3] appears, read: dose: 200.0 mg/kg/injection, schedule: Q01DX009 (ip), vehicle: saline with Tween-80.
Where [4] appears, read: dose: 100.0 mg/kg/injection, schedule: Q01DX009 (ip), vehicle: Klucel (hydroxypropylcellulose) (HPC).
The mark [5] stands for this setting: dose: 200.0 mg/kg/injection, schedule: Q01DX009 (ip), vehicle: Klucel (hydroxypropylcellulose) (HPC).

As to `O=C(c1ccccc1)c1cc(-c2ccccc2)n(C2CCCCC2)c1`, the T/C was 96 % of control (dose: 25.0 mg/kg/injection, schedule: Q01DX009 (ip), vehicle: saline with Tween-80); 86 % of control under setting [1]; 94 % of control under setting [2]; 96 % of control under setting [3].
As to `OCCNCCNc1ccnc2cc(Cl)ccc12`, the T/C reads like this: (dose: 12.5 mg/kg/injection, schedule: Q01DX009 (ip), vehicle: saline) 102 % of control; (dose: 25.0 mg/kg/injection, schedule: Q01DX009 (ip), vehicle: saline) 115 % of control; (dose: 50.0 mg/kg/injection, schedule: Q01DX009 (ip), vehicle: saline) 116 % of control; (dose: 100.0 mg/kg/injection, schedule: Q01DX009 (ip), vehicle: saline) 118 % of control.
As for `O=C(/C=C/c1ccccc1)c1ccccc1`, the T/C under setting [1] was 106 % of control; the T/C under setting [2] is 104 % of control; the T/C under setting [3] was 108 % of control; the T/C (dose: 400.0 mg/kg/injection, schedule: Q01DX009 (ip), vehicle: saline with Tween-80) is 109 % of control.
Regarding `O=C1CC(SC(=S)C2CCCC2=O)C(=O)N1` (stereo not drawn), the T/C was 100 % of control under setting [1], 110 % of control under setting [2] and 89 % of control under setting [3].
With `COc1cc2c(c(OC)c1OC)-c1ccc(OC)c(=O)cc1[C@@H](NC=O)CC2`, the T/C reads like this: (dose: 0.05 mg/kg/injection, schedule: Q01DX009 (ip), vehicle: Klucel (hydroxypropylcellulose) (HPC)) 120 % of control; (dose: 0.09 mg/kg/injection, schedule: Q01DX009 (ip), vehicle: Klucel (hydroxypropylcellulose) (HPC)) 160 % of control; (dose: 0.19 mg/kg/injection, schedule: Q01DX009 (ip), vehicle: Klucel (hydroxypropylcellulose) (HPC)) 160 % of control; (dose: 0.37 mg/kg/injection, schedule: Q01DX010 (ip), vehicle: saline) 154 % of control; (dose: 0.38 mg/kg/injection, schedule: Q01DX009 (ip), vehicle: Klucel (hydroxypropylcellulose) (HPC)) 190 % of control; (dose: 0.38 mg/kg/injection, schedule: Q01DX010 (ip), vehicle: saline) 158 % of control. Besides, the T/C is, setting by setting: (dose: 0.75 mg/kg/injection, schedule: Q01DX009 (ip), vehicle: Klucel (hydroxypropylcellulose) (HPC)) 100 % of control; (dose: 0.75 mg/kg/injection, schedule: Q01DX010 (ip), vehicle: saline) 170 % of control; (dose: 6.3 micrograms/kg/injection, schedule: Q01DX010 (ip), vehicle: saline) 100 % of control; (dose: 12.0 micrograms/kg/injection, schedule: Q01DX009 (ip), vehicle: Klucel (hydroxypropylcellulose) (HPC)) 100 % of control; (dose: 12.5 micrograms/kg/injection, schedule: Q01DX010 (ip), vehicle: saline) 88 % of control; (dose: 23.0 micrograms/kg/injection, schedule: Q01DX009 (ip), vehicle: Klucel (hydroxypropylcellulose) (HPC)) 120 % of control. The T/C is, setting by setting: (dose: 25.0 micrograms/kg/injection, schedule: Q01DX010 (ip), vehicle: saline) 111 % of control; (dose: 50.0 micrograms/kg/injection, schedule: Q01DX010 (ip), vehicle: saline) 111 % of control.
Take `COc1cc([N+](=O)[O-])c(/C=C2/c3cc(OC)c(OC)cc3CCN2C)cc1Br`: the T/C reads like this: under setting [4], 109 % of control; (dose: 100.0 mg/kg/injection, schedule: Q04DX003 (ip), vehicle: Klucel (hydroxypropylcellulose) (HPC)) 100 % of control; under setting [5], 90 % of control; (dose: 200.0 mg/kg/injection, schedule: Q04DX003 (ip), vehicle: Klucel (hydroxypropylcellulose) (HPC)) 100 % of control; (dose: 400.0 mg/kg/injection, schedule: Q01DX009 (ip), vehicle: Klucel (hydroxypropylcellulose) (HPC)) 104 % of control; (dose: 400.0 mg/kg/injection, schedule: Q04DX003 (ip), vehicle: Klucel (hydroxypropylcellulose) (HPC)) 100 % of control.
For `O=S1(=O)CC(Cl)(Br)C1`, the T/C was 105 % of control (dose: 50.0 mg/kg/injection, schedule: Q01DX009 (ip), vehicle: Klucel (hydroxypropylcellulose) (HPC)); 114 % of control under setting [4]; 123 % of control under setting [5].
